# In PMC9421655, “Novel Antagonist of the Type 2 Lysophosphatidic Acid Receptor (LPA2), UCM-14216, Ameliorates Spinal Cord Injury in Mice” (Journal of Medicinal Chemistry, 2022):
# What was measured:
# LPA2 mutant K22A = target: T1, LPA2 mutant K22A (Homo sapiens, UniProt Q9HBW0, K19A); test: Ca2+ mobilization in McA-RH7777 cells transfected with LPA2 point mutant K22A; assay type: cell-based; details: 54 at 10 μM, 10 μM LPA
# T1 construct: host or cells: McA-RH7777 (CRL-1601, ATCC), transient, pcDNA3.1
# [1] = Metabolic stability in mouse liver microsomes; assay type: in vitro ADME; details: male, CD-1, mouse, liver microsomes (pooled), 1 mg/mL protein, NADPH, 37 °C, read-out: stability (t1/2, min) MLMs
# Description: Reactions were initiated by the addition of a suspension of mouse liver microsomes (MLMs) (male CD-1 mice pooled, Sigma-Aldrich) or human liver microsomes (HLMs) (male human pooled, Sigma-Aldrich), respectively, at a final protein concentration of 1 mg/mL. […] Aliquots of 100 μL were quenched at time zero and at seven points ranging to 2 h (MLM) or 4 h (HLM) by pouring into 100 μL of ice-cold acetonitrile. […] The relative disappearance of the compound under study over the course of the incubation was monitored by HPLC-MS using SIM mode. Concentrations were quantified by measuring the area under the peak ([M + H]^+) normalized with an internal standard and converted to the percentage of compound remaining, using the time zero peak area value as 100%. The natural logarithm of the remaining percentage versus time data for each compound was fit to a linear regression, and the slope was used to calculate the degradation half-life (t1/2).
# LPA2 K278A mutant = target: T2, LPA2 K278A mutant (Homo sapiens, UniProt Q9HBW0, K275A); test: Ca2+ mobilization in McA-RH7777 cells transfected with LPA2 point mutant K278A; assay type: cell-based
# T2 construct: host or cells: McA-RH7777 (CRL-1601, ATCC), transient, pcDNA3.1
# T2 sequence (Q9HBW0 whole entry K275A): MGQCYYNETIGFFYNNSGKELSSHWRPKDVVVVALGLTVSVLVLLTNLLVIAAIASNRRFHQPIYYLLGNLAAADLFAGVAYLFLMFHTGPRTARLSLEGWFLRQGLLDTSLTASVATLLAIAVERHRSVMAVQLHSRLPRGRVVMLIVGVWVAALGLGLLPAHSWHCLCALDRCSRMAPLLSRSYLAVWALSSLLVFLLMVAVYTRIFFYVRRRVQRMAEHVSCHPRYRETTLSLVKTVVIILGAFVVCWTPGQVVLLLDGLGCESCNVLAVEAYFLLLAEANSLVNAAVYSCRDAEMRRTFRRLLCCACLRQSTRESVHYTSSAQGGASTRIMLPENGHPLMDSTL
# T1 sequence (Q9HBW0 whole entry K19A): as the sequence (Q9HBW0 whole entry K275A) above, with K19A, A275K counted along it
smiles,measurement,setting,value
Cc1[nH]nc(-c2ccc(OCc3nnn[nH]3)cc2O)c1Oc1ccc(Cl)cc1Cl [Compound 54],agonist/antagonist activity at LPA2 K22A mutant,LPA2 mutant K22A,no significant agonist nor antagonist activity
same,half-life at 1 μM,[1],50 ± 6 min
same,functional activity at LPA2 K278A mutant,LPA2 K278A mutant; 10 μM,behaved as an agonist
same,activation of LPA2 K278A mutant,"LPA2 K278A mutant; at 10 μM, stimulation by 10 μM LPA normalized to 100%",75 ± 5%
